In patent US11485735B2, “Selective CDK4/6 inhibitor and preparation thereof” (Wuxi Shuangliang Biotechnology Co., Ltd., priority 2019, dated 2022):
“Also recorded” adds a separate entry of the source.

Tests used:
CRBN = target: T1, CRBN (Homo sapiens, UniProt Q96SW2); test: In-vitro inhibition assay of CRBN activity (fluorescence polarization, Cy5-Thalidomide); assay type: binding; conditions: Cy5-Thalidomide 10 nM, CRBN 180 nM, 27° C., 60 min
T1 construct: purchased Wuxi Biortus Biosciences Co. Ltd
Description: The final volume for assay was 20 μL, and the reaction temperature was 27° C. CRBN was produced by Wuxi Biortus Biosciences Co. Ltd. The concentration of the kinase was determined by the optimization experiment, and the kinase was diluted with an assay buffer (50 mM Tris, pH 7.5, 100 mM NaCl, and 0.01% Pluronic acid) to obtain a corresponding kinase solution (2× concentration). The compound was dissolved in dimethyl sulfoxide (DMSO) to reach a concentration of 10 mM. […] 5 μL of the test compound solution was mixed with 5 μL of the substrate solution, and 10 μL of the kinase solution was added to the mixture. The mixture was incubated at 27° C. for 60 min. Each assay was conducted in at least two replicates. […].
The final concentrations of the reagents in the assay were as follows. […] The data of fluorescence polarization assay were read on TECAN infinite M1000. Data were calculated by using GraphPad Prism version 6.0, and IC50 values were obtained by adjusting the non-linear regression models of the dose response curves.

CDK6/CyclinD3 = target: T2, CDK6/CyclinD3 (Homo sapiens, UniProt Q00534); test: In-vitro kinase inhibitory activity, CDK6/CyclinD3 (Caliper EZ Reader II mobility shift); assay type: biochemical; conditions: CDK6/CyclinD3 20 nM, ATP 2 mM, Peptide 1 μM, 27° C., 120 min; read-out: IC50 (half maximal inhibitory concentration, nM) CDK6
T2 construct: purchased Wuxi Biortus Biosciences Co. Ltd
Outline: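 Compound was preincubated 10 min with CDK6/CyclinD3, then peptide substrate plus ATP was added and the reaction ran 120 min at 27° C. before EDTA stop. Substrate and phosphorylated product were separated by microfluidic mobility shift, at least two replicates. IC50 from non-linear regression of dose-response curves.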

CDK4/CyclinD3 = target: T3, CDK4/CyclinD3 (Homo sapiens, UniProt P11802); test: In-vitro kinase inhibitory activity, CDK4/CyclinD3 (Caliper EZ Reader II mobility shift); assay type: biochemical; conditions: CDK4/CyclinD3 20 nM, ATP 2 mM, Peptide 1 μM, 27° C., 180 min; read-out: IC50 (half maximal inhibitory concentration, nM) CDK4
T3 construct: purchased Wuxi Biortus Biosciences Co. Ltd
Outline: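 Compound was preincubated 10 min with CDK4/CyclinD3 in Tris pH 8.0 with 5 mM MgCl2, then peptide substrate and ATP were added for 180 min at 27 °C, and the reaction was stopped with EDTA. Substrate and product were separated by mobility shift. IC50 comes from non-linear dose-response fits, with at least two replicates.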

[1] = system: human colon cancer COLO205 cells; test: Growth inhibition of tumor cells cultured in vitro, CellTiter-Glo, COLO205; assay type: cell-based; conditions: for IC50: COLO205, 72 h, CellTiter-Glo; for inhibitory effect on human colon cancer COLO205 cells (in words): summary of the table
Outline: (§1)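 Cells were seeded at 6000/well, COLO205 in RPMI-1640 with 10% FBS and MCF-7 in MEM with 10% FBS plus 0.01 mg/mL insulin, and grown 24 h before dosing. Compound dilutions in medium (10 to 0.0015 μM/L before addition, DMSO <0.1%) were tested in triplicate for 72 h at 37° C. IC50 was derived from CellTiter-Glo luminescence.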

[2] = system: human breast cancer MCF-7 cells; test: Growth inhibition of tumor cells cultured in vitro, CellTiter-Glo, MCF-7; assay type: cell-based; conditions: for IC50: MCF-7, 72 h, CellTiter-Glo; for inhibitory effect on human breast cancer MCF-7 cells (in words): summary of the table
Outline: as §1

CDK2 = CDK2 (Homo sapiens, UniProt P24941); test: In-vitro kinase inhibitory activity, CDK2 (selectivity); assay type: biochemical; conditions: read-out: IC50 (half maximal inhibitory concentration, nM) CDK2
CDK9 = CDK9 (Homo sapiens, UniProt P50750); test: In-vitro kinase inhibitory activity, CDK9 (selectivity); assay type: biochemical; conditions: read-out: IC50 (half maximal inhibitory concentration, nM) CDK9
Chain of CDK9 (P50750 whole entry, species assumed): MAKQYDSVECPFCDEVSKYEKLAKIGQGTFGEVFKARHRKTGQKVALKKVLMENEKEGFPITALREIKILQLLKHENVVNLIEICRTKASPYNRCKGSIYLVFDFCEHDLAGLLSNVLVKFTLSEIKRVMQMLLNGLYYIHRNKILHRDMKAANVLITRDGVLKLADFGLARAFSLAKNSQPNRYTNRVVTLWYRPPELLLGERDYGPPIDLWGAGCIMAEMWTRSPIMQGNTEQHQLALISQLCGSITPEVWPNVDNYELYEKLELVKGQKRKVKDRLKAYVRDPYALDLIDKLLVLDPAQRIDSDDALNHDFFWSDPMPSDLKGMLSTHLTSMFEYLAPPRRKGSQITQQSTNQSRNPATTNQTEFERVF
Chain of CDK9 (O60563 whole entry partner, species assumed): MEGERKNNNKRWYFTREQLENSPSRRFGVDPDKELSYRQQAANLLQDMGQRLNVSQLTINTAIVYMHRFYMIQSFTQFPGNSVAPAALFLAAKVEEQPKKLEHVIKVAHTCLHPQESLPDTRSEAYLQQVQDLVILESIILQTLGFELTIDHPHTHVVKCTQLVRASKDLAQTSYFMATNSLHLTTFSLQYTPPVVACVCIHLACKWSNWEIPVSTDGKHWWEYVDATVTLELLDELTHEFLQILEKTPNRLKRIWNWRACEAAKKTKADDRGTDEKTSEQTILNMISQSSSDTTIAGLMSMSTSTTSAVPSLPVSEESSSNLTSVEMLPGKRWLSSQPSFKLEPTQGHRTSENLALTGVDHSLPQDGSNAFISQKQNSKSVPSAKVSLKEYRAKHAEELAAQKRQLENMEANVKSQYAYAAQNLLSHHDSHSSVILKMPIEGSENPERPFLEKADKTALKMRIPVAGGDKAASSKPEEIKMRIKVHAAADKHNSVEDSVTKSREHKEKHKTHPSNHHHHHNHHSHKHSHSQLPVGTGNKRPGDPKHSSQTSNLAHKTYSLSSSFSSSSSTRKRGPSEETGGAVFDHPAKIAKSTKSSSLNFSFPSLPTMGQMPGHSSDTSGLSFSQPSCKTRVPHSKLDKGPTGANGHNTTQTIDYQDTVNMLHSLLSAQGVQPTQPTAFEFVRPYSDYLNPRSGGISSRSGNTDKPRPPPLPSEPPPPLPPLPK

T3 sequence (P11802 whole entry, species assumed): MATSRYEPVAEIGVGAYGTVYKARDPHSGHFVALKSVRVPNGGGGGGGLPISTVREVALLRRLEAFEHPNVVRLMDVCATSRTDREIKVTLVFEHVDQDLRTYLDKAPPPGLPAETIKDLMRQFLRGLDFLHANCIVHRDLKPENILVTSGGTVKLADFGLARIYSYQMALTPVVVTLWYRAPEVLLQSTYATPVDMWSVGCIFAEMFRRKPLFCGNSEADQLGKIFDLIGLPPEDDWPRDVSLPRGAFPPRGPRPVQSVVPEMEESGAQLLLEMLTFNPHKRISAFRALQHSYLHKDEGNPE
T3 sequence (P30281 whole entry partner, species assumed): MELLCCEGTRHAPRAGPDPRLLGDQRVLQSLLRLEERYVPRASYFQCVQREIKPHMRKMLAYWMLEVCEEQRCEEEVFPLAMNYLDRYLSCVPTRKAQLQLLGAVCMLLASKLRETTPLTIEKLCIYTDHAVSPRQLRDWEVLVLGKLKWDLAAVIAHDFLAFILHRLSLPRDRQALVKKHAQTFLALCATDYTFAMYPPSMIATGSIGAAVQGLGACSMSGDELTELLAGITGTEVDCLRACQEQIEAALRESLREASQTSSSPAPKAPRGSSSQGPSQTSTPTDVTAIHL
T1 sequence (Q96SW2 whole entry, species assumed): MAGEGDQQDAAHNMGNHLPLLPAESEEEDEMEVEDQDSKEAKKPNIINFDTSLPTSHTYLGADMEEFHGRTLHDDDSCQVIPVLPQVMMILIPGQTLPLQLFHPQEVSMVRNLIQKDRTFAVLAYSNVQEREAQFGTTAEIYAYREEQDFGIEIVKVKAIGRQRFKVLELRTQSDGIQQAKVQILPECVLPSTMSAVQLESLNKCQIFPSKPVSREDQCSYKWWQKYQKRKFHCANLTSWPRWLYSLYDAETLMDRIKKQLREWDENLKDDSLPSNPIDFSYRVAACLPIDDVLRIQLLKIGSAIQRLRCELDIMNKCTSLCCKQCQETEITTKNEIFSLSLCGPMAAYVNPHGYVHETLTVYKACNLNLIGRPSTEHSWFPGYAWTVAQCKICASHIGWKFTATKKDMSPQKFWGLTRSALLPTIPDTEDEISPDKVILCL
T2 sequence (Q00534 whole entry, species assumed): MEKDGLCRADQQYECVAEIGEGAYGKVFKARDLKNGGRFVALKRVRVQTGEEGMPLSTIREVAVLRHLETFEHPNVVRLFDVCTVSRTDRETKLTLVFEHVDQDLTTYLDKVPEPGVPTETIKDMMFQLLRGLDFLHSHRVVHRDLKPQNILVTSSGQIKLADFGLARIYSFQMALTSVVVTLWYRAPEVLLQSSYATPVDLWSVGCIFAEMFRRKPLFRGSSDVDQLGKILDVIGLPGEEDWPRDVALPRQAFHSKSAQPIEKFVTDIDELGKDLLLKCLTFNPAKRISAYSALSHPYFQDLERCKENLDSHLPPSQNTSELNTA
T2 sequence (P30281 whole entry partner, species assumed): as the sequence (P30281 whole entry partner, species assumed) above

IC50 (CRBN) [nM] | IC50 (CDK6/CyclinD3) [nM] | IC50 (CDK4/CyclinD3) [nM] | IC50 ([1]; Homo sapiens, COLO 205, 72 h) [nM] | IC50 ([2]; Homo sapiens, MCF7, 72 h) [nM] | IC50 (CDK2) [nM] | IC50 (CDK9) [nM] | IC50 ([1]; dihydrochloride) [nM] | IC50 [2] [nM] | Compound | inhibitory effect on human colon cancer COLO205 cells (in words) [1] | inhibitory effect on human colon cancer COLO205 cells (in words) ([1]; dihydrochloride) | inhibitory effect on human breast cancer MCF-7 cells (in words) [2]
1210 | 16.1 | 19.9 | 96.2 | 821 | 9000 | 3810 |  |  | CC(=O)c1c(C)c2cnc(Nc3ccc(N4CCN(CCN5CCC(C(=O)N6CCN(c7ccc8c(c7)CN([C@H]7CCC(=O)NC7=O)C8=O)CC6)CC5)CC4)cn3)nc2n(C2CCCC2)c1=O [Compound 8, (S)-3-(5-(4-(1-(2-(4-(6-((6-acetyl-8-cyclopentyl-5-methyl-7-oxo-7,8-dihydropyrido[2,3-d]pyrimidin-2-yl)amino)pyridin-3-yl)piperazin-1-yl)ethyl)piperidin-4-carbonyl)piperazin-1-yl)-1-oxoisoindolin-2-yl)piperidine-2,6-dione] | relatively good inhibitory effects |  | 
3000 | 22 | 36.8 |  |  | > 10000 | 8710 | 25.5 | > 10000 | CC(=O)c1c(C)c2cnc(Nc3ccc(N4CCN(CCN5CCN(c6ccc7c(c6)CN(C6CCC(=O)NC6=O)C7=O)CC5)CC4)cn3)nc2n(C2CCCC2)c1=O.Cl.Cl (single isomer, unassigned) [Compound 2, 3-(5-(4-(2-(4-(6-((6-acetyl-8-cyclopentyl-5-methyl-7-oxo-7,8-dihydropyrido[2,3-d]pyrimidin-2-yl)amino)pyridin-3-yl)piperazin-1-yl)ethyl)piperazin-1-yl)-1-oxoisoindolin-2-yl)piperidine-2,6-dione dihydrochloride] |  | relatively good inhibitory effects; also recorded: the best inhibitory effect | 
2080 | 9.7 | 10.7 | 69.2 | 50.5 | > 10000 | 8640 |  |  | CC(=O)c1c(C)c2cnc(Nc3ccc(N4CCN(CCN5CCC(CN6CCN(c7ccc8c(c7)CN(C7CCC(=O)NC7=O)C8=O)CC6)CC5)CC4)cn3)nc2n(C2CCCC2)c1=O.Cl.Cl.Cl (single isomer, unassigned) [Compound 4, 3-(5-(4-((1-(2-(4-(6-((6-acetyl-8-cyclopentyl-5-methyl-7-oxo-7,8-dihydropyrido[2,3-d]pyrimidin-2-yl)amino)pyridin-3-yl)piperazin-1-yl)ethyl)piperidin-4-yl)methyl)piperazin-1-yl)-1-oxoisoindolin-2-yl)piperidine-2,6-dione trihydrochloride] | relatively good inhibitory effects |  | relatively good inhibitory effects
5280 | 6.6 | 10 | 291 | 30.4 | 9910 | 5470 |  |  | CC(=O)c1c(C)c2cnc(Nc3ccc(N4CCN(CCCCN5CCC(CN6CCN(c7ccc8c(c7)CN(C7CCC(=O)NC7=O)C8=O)CC6)CC5)CC4)cn3)nc2n(C2CCCC2)c1=O (stereo not drawn) [Compound 5, 3-(5-(4-((1-(4-(4-(6-((6-acetyl-8-cyclopentyl-5-methyl-7-oxo-7,8-dihydropyrido[2,3-d]pyrimidin-2-yl)amino)pyridin-3-yl)piperazin-1-yl)butyl)piperidin-4-yl)methyl)piperazin-1-yl)-1-oxoisoindolin-2-yl)piperidine-2,6-dione] |  |  | relatively good inhibitory effects
